Patent US8192962B2, “Processes for detecting toxic substances” (Daikin Industries, Ltd., priority 2001, dated 2012)

Tested on: Detoxification protein genes
Test: DNA chip mRNA expression in yeast, detoxification protein genes (Table 8)
Assay type: cell-based, Saccharomyces cerevisiae S288C
Experimental: Yeast (Saccharomyces cerevisiae S288C (α SUC2mal mel gap2 CUP1)) were incubated at 25° C. on YPD medium (yeast extract 1%, polypepton 2%, glucose 2%). One of toxic chemical substances was added to the cells at logarithmic growth phase, and the cells were further incubated for two hours. Cells were cultured without any chemical substance in the same condition, and were used as control. Concentrations of the chemical substances were defined to inhibit the growth of the yeast but not lead to death.
After completion of the incubation, the culture was centrifuged to collect the cells. To the cells, sodium acetate buffer (50 mM sodium acetate, 10 mM EDTA, 1% SDS) was added, and the mixture was shaken at 65° C. for five minutes, followed by returning to room temperature, and obtaining the supernatant, of which the procedures were repeated two times. To the supernatant, ½ amount of a solution of phenol/chloroform was added, and the mixture was centrifuged to give a supernatant, which was added with an equal amount of chloroform, and the mixture was centrifuged to give a supernatant. To the supernatant, an equal amount of isopropanol containing 0.3 M sodium acetate was added, and the mixture was allowed to stand at room temperature for 30 minutes, after which the mixture was centrifuged to give a sediment of the whole RNAs. Seventy % ethanol was added to the sediment, and the mixture was again centrifuged to give a sediment, which was then dried and dissolved in water. mRNA was isolated from the whole RNAs as followings. In view of the fact that a poly A chain is attached to the 3′ terminus of mRNA, a polynucleotide having a poly T structure which was immobilized on the surface of latex beads was used to trap the mRNA, and then the mRNA was washed and eluted with spine column (Oligotex-dT30<Super>mRNA Purification Kit, Takara). Reverse transcription of the mRNA was conducted with a reverse transcriptase (Super Script II Reverse Transcriptase; catalogue No. 18064-014, GibcoBRL) using fluorescence-labeled nucleotides to give cDNAs that were introduced with Cy3-dUTP or Cy5-dUTP during the reverse transcription.
The labeled cDNAs were dissolved in TE buffer (10mM Tris-HCl/1 mM EDTA, pH8.0), and the solution was dropped on the DNA chip containing the whole genes of yeast (DNA Chip Research Inc. Japan) so that the cDNAs were hybridized on the DNA chip at 65° C. for over 12 hours. The fluoresces intensity of the DNA chip was read with a scanner, and the ratio relative to the fluorescence intensity resulting from the absence of chemical substance was estimated as the following, which is shown in Tables 1 to 9: […]

Na2As [(1)] was tested, and the “The level of expressed mRNA in the presence of chemical substance/The level of expressed mRNA in the absence of chemical substance” value (yeast gene YBL064C) was 2.6, the “The level of expressed mRNA in the presence of chemical substance/The level of expressed mRNA in the absence of chemical substance” value (yeast gene YBR008C) was 3.0 and the “The level of expressed mRNA in the presence of chemical substance/The level of expressed mRNA in the absence of chemical substance” value (yeast gene YBR145W) was 1.5. The “The level of expressed mRNA in the presence of chemical substance/The level of expressed mRNA in the absence of chemical substance” value (yeast gene YBR244W) was 0.6, the “The level of expressed mRNA in the presence of chemical substance/The level of expressed mRNA in the absence of chemical substance” value (yeast gene YBR293W) was 1.9 and the “The level of expressed mRNA in the presence of chemical substance/The level of expressed mRNA in the absence of chemical substance” value (yeast gene YCL035C) was 2.0. The “The level of expressed mRNA in the presence of chemical substance/The level of expressed mRNA in the absence of chemical substance” value (yeast gene YCL069W) was 0.9, the “The level of expressed mRNA in the presence of chemical substance/The level of expressed mRNA in the absence of chemical substance” value (yeast gene YCR083W) was 1.1 and the “The level of expressed mRNA in the presence of chemical substance/The level of expressed mRNA in the absence of chemical substance” value (yeast gene YDL100C) was 1.0. The “The level of expressed mRNA in the presence of chemical substance/The level of expressed mRNA in the absence of chemical substance” value (yeast gene YDL168W) was 2.3, the “The level of expressed mRNA in the presence of chemical substance/The level of expressed mRNA in the absence of chemical substance” value (yeast gene YDR256C) was 0.8 and the “The level of expressed mRNA in the presence of chemical substance/The level of expressed mRNA in the absence of chemical substance” value (yeast gene YDR453C) was 1.1. The “The level of expressed mRNA in the presence of chemical substance/The level of expressed mRNA in the absence of chemical substance” value (yeast gene YDR513W) was 2.2, the “The level of expressed mRNA in the presence of chemical substance/The level of expressed mRNA in the absence of chemical substance” value (yeast gene YDR538W) was 0.9 and the “The level of expressed mRNA in the presence of chemical substance/The level of expressed mRNA in the absence of chemical substance” value (yeast gene YEL027W) was 1.2. The “The level of expressed mRNA in the presence of chemical substance/The level of expressed mRNA in the absence of chemical substance” value (yeast gene YEL065W) was 0.3, the “The level of expressed mRNA in the presence of chemical substance/The level of expressed mRNA in the absence of chemical substance” value (yeast gene YER185W) was 2.0 and the “The level of expressed mRNA in the presence of chemical substance/The level of expressed mRNA in the absence of chemical substance” value (yeast gene YFL050C) was 0.7. The “The level of expressed mRNA in the presence of chemical substance/The level of expressed mRNA in the absence of chemical substance” value (yeast gene YGL013C) was 0.9, the “The level of expressed mRNA in the presence of chemical substance/The level of expressed mRNA in the absence of chemical substance” value (yeast gene YGL254W) was 1.2 and the “The level of expressed mRNA in the presence of chemical substance/The level of expressed mRNA in the absence of chemical substance” value (yeast gene YGR088W) was 1.3. The “The level of expressed mRNA in the presence of chemical substance/The level of expressed mRNA in the absence of chemical substance” value (yeast gene YGR138C) was 1.1, the “The level of expressed mRNA in the presence of chemical substance/The level of expressed mRNA in the absence of chemical substance” value (yeast gene YGR197C) was 1.1 and the “The level of expressed mRNA in the presence of chemical substance/The level of expressed mRNA in the absence of chemical substance” value (yeast gene YGR209C) was 1.6. The “The level of expressed mRNA in the presence of chemical substance/The level of expressed mRNA in the absence of chemical substance” value (yeast gene YGR224W) was 0.9, the “The level of expressed mRNA in the presence of chemical substance/The level of expressed mRNA in the absence of chemical substance” value (yeast gene YHL040C) was 1.6 and the “The level of expressed mRNA in the presence of chemical substance/The level of expressed mRNA in the absence of chemical substance” value (yeast gene YHL047C) was 0.6. For the same substance, the “The level of expressed mRNA in the presence of chemical substance/The level of expressed mRNA in the absence of chemical substance” value (yeast gene YHR008C) was 1.3, the “The level of expressed mRNA in the presence of chemical substance/The level of expressed mRNA in the absence of chemical substance” value (yeast gene YHR048W) was 2.5 and the “The level of expressed mRNA in the presence of chemical substance/The level of expressed mRNA in the absence of chemical substance” value (yeast gene YHR053C) was 3.5. For the same substance, the “The level of expressed mRNA in the presence of chemical substance/The level of expressed mRNA in the absence of chemical substance” value (yeast gene YHR055C) was 4.4, the “The level of expressed mRNA in the presence of chemical substance/The level of expressed mRNA in the absence of chemical substance” value (yeast gene YIR002C) was 0.8 and the “The level of expressed mRNA in the presence of chemical substance/The level of expressed mRNA in the absence of chemical substance” value (yeast gene YIR038C) was 1.3. For the same substance, the “The level of expressed mRNA in the presence of chemical substance/The level of expressed mRNA in the absence of chemical substance” value (yeast gene YJL101C) was 2.1, the “The level of expressed mRNA in the presence of chemical substance/The level of expressed mRNA in the absence of chemical substance” value (yeast gene YJR104C) was 1.4 and the “The level of expressed mRNA in the presence of chemical substance/The level of expressed mRNA in the absence of chemical substance” value (yeast gene YKL026C) was 2.7. For the same substance, the “The level of expressed mRNA in the presence of chemical substance/The level of expressed mRNA in the absence of chemical substance” value (yeast gene YKL064W) was 0.6, the “The level of expressed mRNA in the presence of chemical substance/The level of expressed mRNA in the absence of chemical substance” value (yeast gene YKR066C) was 0.9 and the “The level of expressed mRNA in the presence of chemical substance/The level of expressed mRNA in the absence of chemical substance” value (yeast gene YKR105C) was 0.8. For the same substance, the “The level of expressed mRNA in the presence of chemical substance/The level of expressed mRNA in the absence of chemical substance” value (yeast gene YKR106W) was 1.3, the “The level of expressed mRNA in the presence of chemical substance/The level of expressed mRNA in the absence of chemical substance” value (yeast gene YLL028W) was 0.6 and the “The level of expressed mRNA in the presence of chemical substance/The level of expressed mRNA in the absence of chemical substance” value (yeast gene YLL057C) was 2.2. The “The level of expressed mRNA in the presence of chemical substance/The level of expressed mRNA in the absence of chemical substance” value (yeast gene YLL060C) was 12.5, the “The level of expressed mRNA in the presence of chemical substance/The level of expressed mRNA in the absence of chemical substance” value (yeast gene YLR043C) was 1.4 and the “The level of expressed mRNA in the presence of chemical substance/The level of expressed mRNA in the absence of chemical substance” value (yeast gene YLR046C) was 0.7. The “The level of expressed mRNA in the presence of chemical substance/The level of expressed mRNA in the absence of chemical substance” value (yeast gene YML028W) was 1.0, the “The level of expressed mRNA in the presence of chemical substance/The level of expressed mRNA in the absence of chemical substance” value (yeast gene YML116W) was 4.1 and the “The level of expressed mRNA in the presence of chemical substance/The level of expressed mRNA in the absence of chemical substance” value (yeast gene YMR015C) was 0.7. The “The level of expressed mRNA in the presence of chemical substance/The level of expressed mRNA in the absence of chemical substance” value (yeast gene YMR038C) was 1.9, the “The level of expressed mRNA in the presence of chemical substance/The level of expressed mRNA in the absence of chemical substance” value (yeast gene YNL239W) was 1.0 and the “The level of expressed mRNA in the presence of chemical substance/The level of expressed mRNA in the absence of chemical substance” value (yeast gene YNL241C) was 1.3. For the same substance, the “The level of expressed mRNA in the presence of chemical substance/The level of expressed mRNA in the absence of chemical substance” value (yeast gene YNL259C) was 1.6, the “The level of expressed mRNA in the presence of chemical substance/The level of expressed mRNA in the absence of chemical substance” value (yeast gene YOL158C) was 0.7 and the “The level of expressed mRNA in the presence of chemical substance/The level of expressed mRNA in the absence of chemical substance” value (yeast gene YOR031W) was 2.6. The “The level of expressed mRNA in the presence of chemical substance/The level of expressed mRNA in the absence of chemical substance” value (yeast gene YOR153W) was 1.6, the “The level of expressed mRNA in the presence of chemical substance/The level of expressed mRNA in the absence of chemical substance” value (yeast gene YOR247W) was 1.7 and the “The level of expressed mRNA in the presence of chemical substance/The level of expressed mRNA in the absence of chemical substance” value (yeast gene YOR251C) was 1.1. For the same substance, the “The level of expressed mRNA in the presence of chemical substance/The level of expressed mRNA in the absence of chemical substance” value (yeast gene YOR273C) was 0.7, the “The level of expressed mRNA in the presence of chemical substance/The level of expressed mRNA in the absence of chemical substance” value (yeast gene YPL163C) was 0.6 and the “The level of expressed mRNA in the presence of chemical substance/The level of expressed mRNA in the absence of chemical substance” value (yeast gene YPR200C) was 47.7.
